According to the supplement of paper PMC10307832:

Key:
Assay in all cases: relative viability (nuclei count vs DMSO), 5 days (fraction); higher = more cells survive
IDH-C35 + Crizotinib = compound: Cc1ccccc1C(C(=O)NC1CCCCC1)N(C(=O)Cn1ccnc1C)c1cccc(F)c1 [IDH-C35] + C[C@@H](Oc1cc(-c2cnn(C3CCNCC3)c2)cnc1N)c1c(Cl)ccc(F)c1Cl [Crizotinib] (partner 1 µM)
Outline: (§1)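 Lung cancer cell lines, seeded in 1536-well plates, were treated the following day by pin tool with a single drug or with five library-drug doses (not always all listed) in √10 steps on top of a fixed anchor-drug dose. Cells were fixed and nuclei stained in one step after 5 days, and nuclei were counted. Relative viability is the nuclei count for treated wells divided by that for vehicle wells, reported as medians of duplicate plates.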

[1] = compound: CC1=C(C(=NN1)C)CC2=C(C3=C(S2)N(C(=O)N(C3=O)C)CC(C)C)C(=O)N4C[C@@H](CO4)O + O=C(c1cc(Cc2n[nH]c(=O)c3ccccc23)ccc1F)N1CCN(C(=O)C2CC2)CC1 [Olaparib] (partner 8 µM)
Outline: as §1

IDH-C35 + Foretinib = compound: Cc1ccccc1C(C(=O)NC1CCCCC1)N(C(=O)Cn1ccnc1C)c1cccc(F)c1 [IDH-C35] + COc1cc2c(Oc3ccc(NC(=O)C4(C(=O)Nc5ccc(F)cc5)CC4)cc3F)ccnc2cc1OCCCN1CCOCC1 [Foretinib] (partner 0.25 µM)
Outline: as §1

[2] = compound: CC1=C(C(=NN1)C)CC2=C(C3=C(S2)N(C(=O)N(C3=O)C)CC(C)C)C(=O)N4C[C@@H](CO4)O + NC(=O)Nc1cc(-c2cccc(F)c2)sc1C(=O)N[C@H]1CCCNC1 [AZD7762] (partner 0.2 µM)
Outline: as §1

Cell Line	relative viability (IDH-C35 + Crizotinib; first compound 0.08 µM)	relative viability (IDH-C35 + Crizotinib; first compound 0.253 µM)	relative viability (IDH-C35 + Crizotinib; first compound 0.8 µM)	relative viability (IDH-C35 + Crizotinib; first compound 2.53 µM)	relative viability (IDH-C35 + Crizotinib; first compound 8 µM)	relative viability ([1]; first compound 0.0025 µM)	relative viability ([1]; first compound 0.007906 µM)	relative viability ([1]; first compound 0.025 µM)	relative viability ([1]; first compound 0.07906 µM)	relative viability ([1]; first compound 0.25 µM)	relative viability (IDH-C35 + Foretinib; first compound 0.08 µM)	relative viability (IDH-C35 + Foretinib; first compound 0.253 µM)	relative viability (IDH-C35 + Foretinib; first compound 0.8 µM)	relative viability (IDH-C35 + Foretinib; first compound 8 µM)	relative viability ([2]; first compound 0.0025 µM)	relative viability ([2]; first compound 0.007906 µM)	relative viability ([2]; first compound 0.025 µM)	relative viability ([2]; first compound 0.07906 µM)	relative viability ([2]; first compound 0.25 µM)	relative viability (IDH-C35 + Foretinib; first compound 2.53 µM)
HCC-366	0.546	0.51	0.564	0.546	0.42	0.379	0.473	0.357	0.294	0.371	0.986	0.981	0.937	0.938	0.271	0.361	0.297	0.277	0.378	
HCC-827	0.911	0.956	0.911	0.876	0.957	0.641	0.629	0.58	0.612	0.612	1.05	0.964	1.01	1.05	0.233	0.199	0.196	0.196	0.2	1.03
HOP-62	0.839	1.04	0.832		0.925	0.408	0.434	0.545	0.425	0.515	1.11	1.01	0.999	1.13	0.668	0.589	0.646	0.615	0.851	1.09
LC-2-ad	0.463	0.454	0.426		0.485	0.748	0.659	0.702	0.658	0.782	0.917	0.938	0.904	0.908	0.892	0.83	0.84	0.856	0.851	
LCLC-97TM1	0.366	0.281	0.291		0.293	0.492	0.519	0.404	0.38	0.414	0.921	0.865	0.947	0.954	0.194	0.326	0.331	0.28	0.369	1.02
LCLC-103H	1.01	1.07	1	1.07	0.987	0.797	0.735	0.762	0.753	0.773	0.795	0.717	0.85	0.736	0.793	0.914	0.768	0.807	0.749	0.754
LK-2	0.223	0.23	0.215	0.209	0.233	0.743	0.608	0.504	0.556	0.6	1.23	1.36	1.27	1.48	0.304	0.252	0.298	0.129	0.134	1.12
LOU-NH91	0.741	0.754	0.722	0.743	0.751	0.912	0.877	0.925	0.956	0.926	0.949	0.946	0.92	0.913	0.817	0.817	0.75	0.863	0.742	0.918
LU99A	0.585	0.612	0.587	0.578	0.539	0.224	0.262	0.246	0.193	0.229	0.939	0.915	0.81	0.85	0.333	0.379	0.326	0.311	0.337	0.69
LXF-289	0.794	0.774	0.771	0.798	0.798	1.06	1	1.07	1.03	1.25	0.969	0.94	1.01	0.969	1.06	1.13	1.07	1.2	1.22	1.01
NCI-H23	0.488	0.654	0.488	0.507	0.432	0.39	0.322	0.311	0.339	0.376	0.912	1.03	1.1	0.846	0.23	0.208	0.298	0.271	0.31	1.04
NCI-H322M	0.863	0.961	0.91	0.931	1.02	0.448	0.726	0.702	0.659	0.736	0.93	0.886	0.945	0.983	0.655	0.57	0.71	0.573	0.662	0.916
NCI-H358	0.67	0.516	0.559	0.505	0.589	0.596	0.557	0.625	0.605	0.684	0.757	0.738	0.685	0.603	0.571	0.623	0.431	0.643	0.594	0.769
NCI-H441	0.964	0.673	0.649	0.703	0.749	0.648	0.529	0.521	0.478	0.593	0.863	0.753	0.948	0.888	1.44	1.23	1.12	1.3	1.16	1
NCI-H460	1	0.989	0.782	0.814	0.955	0.419	0.516	0.418	0.355	0.459	1.02	1.01	1.02	0.904	0.726	0.65	0.562	0.551	0.596	0.989
NCI-H596	0.831	0.966	1.08	1.02	0.973	0.765	0.743	0.73	0.696	0.635	0.948	0.796	0.775	0.763	1.29	1.25	1.06	0.976	1.01	

Cell Line	relative viability (IDH-C35 + Crizotinib; first compound 0.08 µM)	relative viability (IDH-C35 + Crizotinib; first compound 0.253 µM)	relative viability (IDH-C35 + Crizotinib; first compound 0.8 µM)	relative viability (IDH-C35 + Crizotinib; first compound 2.53 µM)	relative viability (IDH-C35 + Crizotinib; first compound 8 µM)	relative viability ([1]; first compound 0.0025 µM)	relative viability ([1]; first compound 0.007906 µM)	relative viability ([1]; first compound 0.025 µM)	relative viability ([1]; first compound 0.07906 µM)	relative viability ([1]; first compound 0.25 µM)	relative viability (IDH-C35 + Foretinib; first compound 0.08 µM)	relative viability (IDH-C35 + Foretinib; first compound 0.253 µM)	relative viability (IDH-C35 + Foretinib; first compound 0.8 µM)	relative viability (IDH-C35 + Foretinib; first compound 8 µM)	relative viability ([2]; first compound 0.0025 µM)	relative viability ([2]; first compound 0.007906 µM)	relative viability ([2]; first compound 0.025 µM)	relative viability ([2]; first compound 0.07906 µM)	relative viability ([2]; first compound 0.25 µM)	relative viability (IDH-C35 + Foretinib; first compound 2.53 µM)
NCI-H647	0.876	1.02	1.05	1.07	0.98	0.626	0.415	0.481	0.647	0.685	1.36	1.13	1.28	1.02	0.515	0.418	0.366	0.653	0.45	1.17
NCI-H650	0.671	0.677	0.9		0.689	0.415	0.45	0.345	0.41	0.454	1.03	1.04	1.05	0.981	1.03	0.961	0.893	0.936	0.913	
NCI-H727	0.853	0.734	0.826	0.916	0.954	0.813	0.762	0.747	0.782	0.568	0.87	0.693	1.07	0.764	0.6	0.842	0.575	0.623	0.652	0.832
NCI-H838	0.834	0.787	0.812	0.77	0.799	0.741	0.714	0.639	0.65	0.604	1.07	0.991	0.95	1.03	0.908	0.859	0.884	0.835	0.896	0.998
NCI-H1355	1.08	1.03	1.03	1.01	1.07	0.889	0.806	0.783	0.738	0.724	1.04	1.02	0.935	1	0.688	0.842	0.713	0.65	0.816	0.982
NCI-H1437	0.979	0.913	0.907	0.874	0.796	0.624	0.622	0.635	0.643	0.613	1.29	1.28	1.25	1.23	1.21	1.07	1.09	1.11	1.14	1.29
NCI-H1651	0.848	0.874	0.874	0.919	0.925	0.178	0.172	0.205	0.193	0.199	0.858	0.809	0.732	0.79	0.414	0.478	0.391	0.337	0.416	0.822
NCI-H1666	0.995	0.942	0.968	1	0.967	0.751	0.742	0.766	0.769	0.725	1.05	0.92	0.982	0.848	0.741	0.859	0.812	0.787	1.01	1.01
NCI-H1703	0.582	0.875	1.09	0.636	0.823	0.467	0.348	0.422	0.41	0.447	0.321	0.335	0.334	0.348	0.113	0.144	0.112	0.113	0.136	0.367
NCI-H1734	0.69	0.729	0.623	0.638	0.729	0.663	0.635	0.576	0.511	0.53	0.799	0.913	0.936	0.774	0.53	0.581	0.342	0.402	0.381	0.796
NCI-H1755	0.911	0.915	0.872	0.865	0.827	0.92	0.897	0.861	0.85	0.902	0.951	0.921	0.874	0.933	0.465	0.434	0.425	0.407	0.471	0.95
NCI-H1915	0.855	0.865	0.805	0.904	0.917	0.259	0.251	0.266	0.249	0.255	1.07	1.13	1.07	1.07	0.742	0.727	0.658	0.641	0.762	1.05
NCI-H1944	1.12	1.18	0.979	1.04	1.22	0.455	0.427	0.423	0.373	0.423	0.91	0.934	0.888	0.798	0.531	0.524	0.466	0.478	0.51	0.827
NCI-H1975	1	0.967	0.93	0.924	0.876	0.814	0.906	0.839	0.77	0.875	0.938	0.951	1.01	0.862	0.709	0.691	0.735	0.723	0.771	0.974
NCI-H1993	0.888	0.874	0.833	0.743	0.903	0.964	0.957	0.947	0.844	0.912	0.797	0.688	0.811	0.759	0.893	0.656	0.596	0.674	0.696	0.787
NCI-H2085	0.808	0.749	0.877	0.954	0.781	0.736	0.686	0.704	0.72	0.752	0.895	0.907	0.902	0.897	1.01	1.02	0.879	0.986	0.448	1
